Laboratory results: patent US9453026B2, “ACC inhibitors and uses thereof” (Gilead Apollo, Inc., priority 2011, dated 2016)

Experiments:
ACC2 = ACC2 (Homo sapiens, UniProt O00763); assay: In vitro ACC2 inhibition assay (ADP-Glo); type: biochemical; conditions: read-out: ACC2
How it was run: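 Enzyme (human ACC1 or ACC2) and compound, serially diluted 1:3 over 11 points from a 600 uM DMSO stock, were preincubated 15 min before substrate addition.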

ACC1 = ACC1 (Homo sapiens, UniProt Q13085); assay: In vitro ACC1 inhibition assay (ADP-Glo); type: biochemical; conditions: read-out: ACC1
Protocol: An exemplary procedure for the in vitro ACC inhibition assay, which can be used to determine the inhibitory action of compounds of the invention toward either ACC1 or ACC2, follows. The ADP-Glo™ Kinase Assay kit from Promega was used. The ADP-Glo™ Kinase Assay is a luminescent ADP detection assay to measure enzymatic activity by quantifying the amount of ADP produced during an enzyme reaction. The assay is performed in two steps; first, after the enzyme reaction, an equal volume of ADP-Glo™ Reagent is added to terminate the reaction and deplete the remaining ATP. Second, the Kinase Detection Reagent is added to simultaneously convert ADP to ATP and allow the newly synthesized ATP to be measured using a luciferase/luciferin reaction. Luminescence can be correlated to ADP concentrations by using an ATP-to-ADP conversion curve. The detailed procedure is as follows. 50 μL of the compound being tested (600 uM in DMSO) was added to a 384-well dilution plate. The compound was diluted 1:3 in succession in DMSO for each row for 11 wells. 0.5 μL ACC2 working solution was added to 384-well white Optiplate assay plate. 0.5 μL diluted compound solution in each column from step 2 to assay plate, each row containing 2 replicates. […] The plates were incubated at room temperature for 15 minutes. 5 μL substrate working solution was added to each well to initiate reaction. […] Plates were incubated at room temperature for 60 minutes. 10 μL ADP glo reagent was added. Plates were incubated at room temperature for 40 minutes. 20 μL kinase detection reagent was added.
Data for each concentration, as well as the positive and negative controls were averaged, and the standard deviation calculated. Percent inhibition was calculated by the formula: 100× (average negative control−compound)/(average negative control−average positive control). The IC50 for each compound was calculated by fitting the data with a non-linear regression equation: Y=Bottom+(Top-Bottom)/(1+10^((Log IC50−X)*HillSlope)), where X is the log of compound concentration and Y is percent inhibition.
The compound numbers correspond to the compound numbers in Table 1.

ACC2, sequence (O00763 whole entry, species assumed): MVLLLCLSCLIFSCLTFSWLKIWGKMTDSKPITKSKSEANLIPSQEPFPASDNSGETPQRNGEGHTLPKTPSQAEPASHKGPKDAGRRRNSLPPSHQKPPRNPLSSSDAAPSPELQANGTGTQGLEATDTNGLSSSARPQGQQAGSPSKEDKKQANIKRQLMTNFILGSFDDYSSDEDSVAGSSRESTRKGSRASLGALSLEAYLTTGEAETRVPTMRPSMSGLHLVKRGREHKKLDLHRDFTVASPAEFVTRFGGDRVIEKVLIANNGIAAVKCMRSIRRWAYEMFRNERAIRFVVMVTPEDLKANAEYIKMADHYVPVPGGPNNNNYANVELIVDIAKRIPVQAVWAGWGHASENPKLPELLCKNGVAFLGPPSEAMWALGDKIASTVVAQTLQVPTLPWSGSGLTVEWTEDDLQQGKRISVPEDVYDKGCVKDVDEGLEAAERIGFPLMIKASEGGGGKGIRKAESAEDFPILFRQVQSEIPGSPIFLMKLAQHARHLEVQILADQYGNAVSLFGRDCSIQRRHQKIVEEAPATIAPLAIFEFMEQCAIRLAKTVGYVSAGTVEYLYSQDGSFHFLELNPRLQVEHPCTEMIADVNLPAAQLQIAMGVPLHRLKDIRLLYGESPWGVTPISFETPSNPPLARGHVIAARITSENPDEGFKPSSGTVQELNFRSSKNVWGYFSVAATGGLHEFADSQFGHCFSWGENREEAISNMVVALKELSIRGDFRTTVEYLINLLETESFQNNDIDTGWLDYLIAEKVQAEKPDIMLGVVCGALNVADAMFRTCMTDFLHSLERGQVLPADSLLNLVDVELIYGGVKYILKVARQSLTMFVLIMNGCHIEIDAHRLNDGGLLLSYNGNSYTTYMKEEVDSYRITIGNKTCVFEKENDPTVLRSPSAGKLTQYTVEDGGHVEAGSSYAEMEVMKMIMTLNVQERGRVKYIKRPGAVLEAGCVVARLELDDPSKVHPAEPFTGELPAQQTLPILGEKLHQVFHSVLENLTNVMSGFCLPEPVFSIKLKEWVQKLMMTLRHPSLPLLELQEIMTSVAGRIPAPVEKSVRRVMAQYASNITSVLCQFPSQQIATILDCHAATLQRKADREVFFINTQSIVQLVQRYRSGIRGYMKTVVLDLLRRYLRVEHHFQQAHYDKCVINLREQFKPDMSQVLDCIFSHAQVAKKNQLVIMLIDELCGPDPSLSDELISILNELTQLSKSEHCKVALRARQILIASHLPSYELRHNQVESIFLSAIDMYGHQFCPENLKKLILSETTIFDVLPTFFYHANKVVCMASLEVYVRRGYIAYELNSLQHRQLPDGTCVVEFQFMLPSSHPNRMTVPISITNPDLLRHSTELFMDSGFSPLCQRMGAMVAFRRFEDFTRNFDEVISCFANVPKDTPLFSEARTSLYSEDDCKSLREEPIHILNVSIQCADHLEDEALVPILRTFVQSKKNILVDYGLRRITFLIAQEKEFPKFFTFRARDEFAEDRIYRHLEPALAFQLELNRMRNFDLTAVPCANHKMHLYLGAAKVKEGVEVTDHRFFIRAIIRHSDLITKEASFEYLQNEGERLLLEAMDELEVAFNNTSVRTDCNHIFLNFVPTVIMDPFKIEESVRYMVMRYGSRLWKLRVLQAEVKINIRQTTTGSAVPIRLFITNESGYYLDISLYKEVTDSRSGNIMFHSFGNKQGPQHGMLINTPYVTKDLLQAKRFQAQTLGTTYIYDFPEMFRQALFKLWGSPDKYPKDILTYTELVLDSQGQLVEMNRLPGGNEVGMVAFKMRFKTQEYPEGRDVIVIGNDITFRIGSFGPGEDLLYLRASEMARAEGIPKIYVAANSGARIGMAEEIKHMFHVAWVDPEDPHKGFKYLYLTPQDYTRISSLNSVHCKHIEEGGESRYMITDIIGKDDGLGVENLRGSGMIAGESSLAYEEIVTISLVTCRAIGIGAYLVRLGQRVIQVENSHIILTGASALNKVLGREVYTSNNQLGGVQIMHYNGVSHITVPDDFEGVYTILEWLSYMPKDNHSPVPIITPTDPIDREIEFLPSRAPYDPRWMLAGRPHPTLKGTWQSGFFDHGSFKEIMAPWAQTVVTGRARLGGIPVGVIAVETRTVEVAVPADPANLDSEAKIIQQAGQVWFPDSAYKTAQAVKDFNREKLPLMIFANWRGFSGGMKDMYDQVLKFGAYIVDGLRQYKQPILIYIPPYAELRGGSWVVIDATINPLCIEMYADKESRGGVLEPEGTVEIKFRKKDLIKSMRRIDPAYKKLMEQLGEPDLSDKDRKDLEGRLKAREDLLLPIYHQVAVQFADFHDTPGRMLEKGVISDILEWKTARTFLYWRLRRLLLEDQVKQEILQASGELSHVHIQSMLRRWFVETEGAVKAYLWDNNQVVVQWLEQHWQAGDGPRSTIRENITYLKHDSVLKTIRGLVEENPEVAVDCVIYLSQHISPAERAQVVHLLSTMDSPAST

Compound | IC50 (ACC2) [nM] | IC50 (ACC1) [nM]
Cc1c(-c2ncco2)sc2c1c(=O)n(C(C)(C)C(=O)O)c(=O)n2C[C@H](OC1CCOCC1)c1ccccc1OC(C)C [I-291, 2-methyl-2-[5-methyl-1-[(2R)-2-(oxan-4-yloxy)-2-[2-(propan-2-yloxy)phenyl]ethyl]-6-(1,3-oxazol-2-yl)-2,4-dioxo-1H,2H,3H,4H-thieno[2,3-d]pyrimidin-3-yl]propanoic acid] | < 100 | < 100
CCc1ccccc1[C@H](Cn1c(=O)n(C(C)(C)C(=O)O)c(=O)c2c(C)c(-c3ncco3)sc21)O[C@H]1CC[C@H](O)CC1 [I-244, 2-(1-((R)-2-(2-ethylphenyl)-2-(((1r,4R)-4-hydroxycyclohexyl)oxy)ethyl)-5-methyl-6-(oxazol-2-yl)-2,4-dioxo-1,2-dihydrothieno[2,3-d]pyrimidin-3(4H)-yl)-2-methylpropanoic acid] | < 100 | < 100
CCOc1ccccc1[C@H](Cn1c(=O)n(C(C)(C)C(=O)O)c(=O)c2c(C)c(-c3ncco3)sc21)OC(C)C [I-177, 2-[1-[(2R)-2-(2-ethoxyphenyl)-2-(propan-2-yloxy)ethyl]-5-methyl-6-(1,3-oxazol-2-yl)-2,4-dioxo-1H,2H,3H,4H-thieno[2,3-d]pyrimidin-3-yl]-2-methylpropanoic acid] | < 100 | < 100
COc1ccccc1[C@H](Cn1c(=O)n(C(C)(C)C(=O)O)c(=O)c2c(C)c(-c3ncco3)sc21)OC[C@@H](C)O [I-258, 2-[1-[(2R)-2-[(2R)-2-hydroxypropoxy]-2-(2-methoxyphenyl)ethyl]-5-methyl-6-(1,3-oxazol-2-yl)-2,4-dioxo-1H,2H,3H,4H-thieno[2,3-d]pyrimidin-3-yl]-2-methylpropanoic acid] | < 100 | < 100
COc1ccccc1[C@H](Cn1c(=O)n(C(C)(C)C(N)=O)c(=O)c2c(C)c(-c3ncco3)sc21)OCC1CCOCC1 [I-260, 2-[1-[(2R)-2-(2-methoxyphenyl)-2-(oxan-4-ylmethoxy)ethyl]-5-methyl-6-(1,3-oxazol-2-yl)-2,4-dioxo-1H,2H,3H,4H-thieno[2,3-d]pyrimidin-3-yl]-2-methylpropanamide] | < 100 | < 100
CCOC(=O)c1sc2c(c1C)c(=O)n(C(C)(C)C(=O)O)c(=O)n2C[C@H](OC(C)C)c1ccccc1 [I-108, 2-[6-(ethoxycarbonyl)-5-methyl-2,4-dioxo-1-[(2R)-2-phenyl-2-(propan-2-yloxy)ethyl]-1H,2H,3H,4H-thieno[2,3-d]pyrimidin-3-yl]-2-methylpropanoic acid] | < 1000 | < 100
Cc1c(-c2ncco2)sc2c1c(=O)n(C(C)(C)C(=O)O)c(=O)n2C[C@H](OC1CCC(O)CC1)c1ccccc1 (stereo partly drawn) [I-164, 2-[1-[(2R)-2-[(4-hydroxycyclohexyl)oxy]-2-phenylethyl]-5-methyl-6-(1,3-oxazol-2-yl)-2,4-dioxo-1H,2H,3H,4H-thieno[2,3-d]pyrimidin-3-yl]-2-methylpropanoic acid] | < 100 | < 100
COc1ccccc1[C@H](Cn1c(=O)n(C(C)(C)C(=O)N2CCCC2)c(=O)c2c(C)c(-c3ncco3)sc21)OC(C)C [I-238, 1-[(2R)-2-(2-methoxyphenyl)-2-(propan-2-yloxy)ethyl]-5-methyl-3-[2-methyl-1-oxo-1-(pyrrolidin-1-yl)propan-2-yl]-6-(1,3-oxazol-2-yl)-1H,2H,3H,4H-thieno[2,3-d]pyrimidine-2,4-dione] | < 100 | < 100
CCOC(=O)c1sc2c(c1C)c(=O)n(C(C)(C)C(=O)O)c(=O)n2CCc1ccccc1 [I-70, 2-[6-(ethoxycarbonyl)-5-methyl-2,4-dioxo-1-(2-phenylethyl)-1H,2H,3H,4H-thieno[2,3-d]pyrimidin-3-yl]-2-methylpropanoic acid] | < 1000 | < 1000
Cc1c(-c2ncco2)sc2c1c(=O)n(C(C)(C)C(=O)O)c(=O)n2CC(Oc1ccccc1)c1ccccc1 (stereo in doubt) [I-143, 2-methyl-2-[5-methyl-6-(1,3-oxazol-2-yl)-2,4-dioxo-1-[(2S)-2-phenoxy-2-phenylethyl]-1H,2H,3H,4H-thieno[2,3-d]pyrimidin-3-yl]propanoic acid] | < 1000 | < 1000
COc1ccccc1[C@H](Cn1c(=O)n(C(C)(C)C(=O)N2CCC2)c(=O)c2c(C)c(-c3ncco3)sc21)OC(C)C [I-237, 3-[1-(azetidin-1-yl)-2-methyl-1-oxopropan-2-yl]-1-[(2R)-2-(2-methoxyphenyl)-2-(propan-2-yloxy)ethyl]-5-methyl-6-(1,3-oxazol-2-yl)-1H,2H,3H,4H-thieno[2,3-d]pyrimidine-2,4-dione] | < 100 | < 100
CCc1ccccc1[C@H](Cn1c(=O)n(C(C)(C)C(=O)O)c(=O)c2c(C)c(-c3ncco3)sc21)O[C@H]1CC[C@@H](O)CC1 [I-245, 2-(1-((R)-2-(2-ethylphenyl)-2-(((1s,4S)-4-hydroxycyclohexyl)oxy)ethyl)-5-methyl-6-(oxazol-2-yl)-2,4-dioxo-1,2-dihydrothieno[2,3-d]pyrimidin-3(4H)-yl)-2-methylpropanoic acid] | < 100 | < 100
CCOc1ccccc1[C@H](Cn1c(=O)n(C(C)(C)C(=O)O)c(=O)c2c(C)c(-c3ncco3)sc21)OCCO [I-256, 2-[1-[(2R)-2-(2-ethoxyphenyl)-2-(2-hydroxyethoxy)ethyl]-5-methyl-6-(1,3-oxazol-2-yl)-2,4-dioxo-1H,2H,3H,4H-thieno[2,3-d]pyrimidin-3-yl]-2-methylpropanoic acid] | < 100 | < 100
COc1ccccc1[C@H](Cn1c(=O)n(C(C)(C)C(=O)O)c(=O)c2c(C)c(-c3ncco3)sc21)O[C@H]1CC[C@H](O)CC1 [I-277, 2-[1-[(2R)-2-[(4-hydroxycyclohexyl)oxy]-2-(2-methoxyphenyl)ethyl]-5-methyl-6-(1,3-oxazol-2-yl)-2,4-dioxo-1H,2H,3H,4H-thieno[2,3-d]pyrimidin-3-yl]-2-methylpropanoic acid] | < 100 | < 100
CCOC(=O)c1sc2c(c1C)c(=O)n(C(C)(C)C(N)=O)c(=O)n2C[C@H](OC(C)C)c1ccccc1 [I-115, ethyl 3-(1-carbamoyl-1-methylethyl)-5-methyl-2,4-dioxo-1-[(2R)-2-phenyl-2-(propan-2-yloxy)ethyl]-1H,2H,3H,4H-thieno[2,3-d]pyrimidine-6-carboxylate] | < 1000 | < 1000
Cc1c(-c2ncco2)sc2c1c(=O)n(C(C)(C)C(=O)O)c(=O)n2C[C@H](OC(C)C)c1ccccc1 [I-119, 2-methyl-2-[5-methyl-6-(1,3-oxazol-2-yl)-2,4-doxo-1-[(2R)-2-phenyl-2-(propan-2-yloxy)ethyl]-1H,2H,3H,4H-thieno[2,3-d]pyrimidin-3-yl]propanoic acid] | < 1000 | < 100
CCOC(=O)c1sc2c(c1C)c(=O)n(CC(=O)O)c(=O)n2CC(O)c1ccccc1 (centres unmarked) [I-60, 2-[6-(ethoxycarbonyl)-1-(2-hydroxy-2-phenylethyl)-5-methyl-2,4-dioxo-1H,2H,3H,4H-thieno[2,3-d]pyrimidin-3-yl]acetic acid] | < 5000 | < 5000
CCOC(=O)c1sc2c(c1C)c(=O)n(CC(N)=O)c(=O)n2C[C@H](OC(C)C)c1ccccc1 [I-112, ethyl 3-(carbamoylmethyl)-5-methyl-2,4-dioxo-1-[(2R)-2-phenyl-2-(propan-2-yloxy)ethyl]-1H,2H,3H,4H-thieno[2,3-d]pyrimidine-6-carboxylate] | < 1000 | < 100
CCc1ccccc1[C@H](Cn1c(=O)n(C(C)(C)C(=O)O)c(=O)c2c(C)c(-c3ncco3)sc21)OCCO [I-255, 2-[1-[(2R)-2-(2-ethylphenyl)-2-(2-hydroxyethoxy)ethyl]-5-methyl-6-(1,3-oxazol-2-yl)-2,4-dioxo-1H,2H,3H,4H-thieno[2,3-d]pyrimidin-3-yl]-2-methylpropanoic acid] | < 100 | < 100
CCc1ccccc1CCn1c(=O)n(C(C)(C)C(N)=O)c(=O)c2c(C)c(-c3ncco3)sc21 [I-134, 2-[1-[2-(2-ethylphenyl)ethyl]-5-methyl-6-(1,3-oxazol-2-yl)-2,4-dioxo-1H,2H,3H,4H-thieno[2,3-d]pyrimidin-3-yl]-2-methylpropanamide] | < 1000 | < 1000
CCOC(=O)c1sc2c(c1C)c(=O)n(CC(N)=O)c(=O)n2CCc1ccccc1 [I-14] | < 5000 | < 5000
COc1ccccc1[C@H](Cn1c(=O)n(C(C)(C)C(=O)N2CCC2)c(=O)c2c(C)c(-c3ncco3)sc21)OC1CCOCC1 [I-247, 3-[1-(azetidin-1-yl)-2-methyl-1-oxopropan-2-yl]-1-[(2R)-2-(2-methoxyphenyl)-2-(oxan-4-yloxy)ethyl]-5-methyl-6-(1,3-oxazol-2-yl)-1H,2H,3H,4H-thieno[2,3-d]pyrimidine-2,4-dione] | < 100 | < 100
